Patent publication US7115612B2, “Arylsulfonamides as antiviral agents” (Bayer Aktiengesellschaft, priority 2001, dated 2006)

Key:
HCMV = test: Anti-HCMV cytopathogenicity test; type: cell-based, human cytomegalovirus; details: for EC50: Human betaherpesvirus 5, 144 h, inhibition of CPE by 50% in HCMV-infected HELF cells, M.O.I. 0.001–0.002, 6 days; for SI HCMV: selectivity index = CC50 (HELF)/EC50 (HCMV)
Experimental: (§1) Anti-HCMV (Anti-Human Cytomegalovirus) and anti-MCMV (Anti-Murine Cytomegalovirus) cytopathogenicity tests: The test compounds were employed as 50 millimolar (mM) solutions in dimethyl sulphoxide (DMSO). Ganciclovir, foscarnet and cidofovir served as reference compounds. Following the addition of in each case 2 μl of the 50, 5, 0.5 and 0.05 mM DMSO stock solutions to in each case 98μ of cell culture medium in row […], in duplicate determinations, 1:2 dilutions with in each case 50 μl of medium were prepared up to row 11 of the 96-well plate. The wells in rows 1 and 12 each contained 50 μl of medium. 150 μl of a suspension of 1×10^4 cells (human lung fibroblasts [HELF]) (row 1=cell control) or, in rows 2-12, a mixture of HCMV-infected and non-infected HELF cells (M.O.I.=0.001-0.002), i.e. 1-2 infected cells per 1000 non-infected cells, were then pipetted into each of the wells. Row 12 (without substance) served as virus control. The final test concentrations were 250-0.0005 μM. The plates were incubated at 37° C./5% CO2 for 6 days, i.e. until all cells in the virus controls had been infected (100% cytopathogenic effect [CPE]). The wells were then fixed and stained by adding a mixture of Formalin and Giemsa Stain (30 minutes), washed with doubly distilled water and dried in a drying cabinet at 50° C. The plates were then evaluated visually using an overhead microscope (plaque multiplier from Technomara). From the test plates, the following data were determined: EC50 (HCMV)=substance concentration in μM which inhibits the CPE (cytopathic effect) by 50% compared to the untreated virus control; SI (selectivity index)=CC50 (HELF)/EC50 (HCMV).

[1] = Cytotoxicity on HELF cells in the anti-HCMV cytopathogenicity test; type: cell-based; details: human lung fibroblasts (HELF cells), 6 days incubation, visual evaluation
Experimental: as §1, with “The” for “Anti-HCMV (Anti-Human Cytomegalovirus) and anti-MCMV (Anti-Murine Cytomegalovirus) cytopathogenicity tests: The”, “CC50 (HELF)=substance” for “EC50 (HCMV)=substance”, “at which,” for “which inhibits the CPE (cytopathic effect) by 50%”, “cell control, no visible cytostatic effects on the cells were noticeable;” for “virus control; SI (selectivity index)=CC50 (HELF)/EC50 (HCMV).”

MCMV = test: Anti-MCMV cytopathogenicity test; type: cell-based, murine cytomegalovirus; details: for EC50: Murid betaherpesvirus 1, 120 h, MCMV-infected 3T3 mouse cells, M.O.I. 0.05–0.1, 5 days; for SI MCMV: selectivity index, 3T3 CC50 / MCMV EC50
Experimental: Anti-HCMV (Anti-Human Cytomegalovirus) and anti-MCMV (Anti-Murine Cytomegalovirus) cytopathogenicity tests:
(§2) The test compounds were employed as 50 millimolar (mM) solutions in dimethyl sulphoxide (DMSO). Ganciclovir, foscarnet and cidofovir served as reference compounds. Following the addition of in each case 2 μl of the 50, 5, 0.5 and 0.05 mM DMSO stock solutions to in each case 98μ of cell culture medium in row 2 A-H, in duplicate determinations, 1:2 dilutions with in each case 50 μl of medium were prepared up to row 11 of the 96-well plate. The wells in rows 1 and 12 each contained 50 μl of medium. 150 μl of a suspension of 1×10^4 cells (human lung fibroblasts [HELF]) (row 1=cell control) or, in rows 2–12, a mixture of HCMV-infected and non-infected HELF cells (M.O.I.=0.001–0.002), i.e. 1–2 infected cells per 1000 non-infected cells, were then pipetted into each of the wells. Row 12 (without substance) served as virus control. The final test concentrations were 250–0.0005 μM. The plates were incubated at 37° C./5% CO2 for 6 days, i.e. until all cells in the virus controls had been infected (100% cytopathogenic effect [CPE]). The wells were then fixed and stained by adding a mixture of Formalin and Giemsa Stain (30 minutes), washed with doubly distilled water and dried in a drying cabinet at 50° C. The plates were then evaluated visually using an overhead microscope (plaque multiplier from Technomara).
(§3) Compared to the process described above for HCMV, the anti-MCMV test was carried out with the following changes: a cell-free virus suspension was mixed with a concentrated cell suspension (3T3 mouse cells) and incubated for 15 minutes for adsorption of the viruses, and the suspension was then diluted with medium to 1.3×10^5 cells/ml with a final multiplicity of infection (M.O.I.) of from 0.05–0.1, and in each case 150 μl were dispensed into the wells. The incubation time was 5 days.

[2] = Cytotoxicity on 3T3 cells in the anti-MCMV cytopathogenicity test; type: cell-based; details: mouse, 3T3 mouse cells, 5 days incubation
Experimental: as §2
CC50 (HELF)=substance concentration in μM at which, compared to the untreated cell control, no visible cytostatic effects on the cells were noticeable;
as §3

Compound	EC50 (HCMV) [nM]	SI HCMV (HCMV)	CC50 at 6 days [1] [nM]	EC50 (MCMV) [nM]	SI MCMV (MCMV)	CC50 at 5 days [2] [nM]
Cc1nc(-c2nc(-c3ccc(S(=O)(=O)Nc4cccc(NC(=O)C5(C)CC5)c4)cc3)no2)cs1 [Example 11, 1-Methyl-N-{3-[({4-[5-(2-methyl-1,3-thiazol-4-yl)-1,2,4-oxadiazol-3-yl]phenyl}-sulphonyl)amino]phenyl}cyclopropanecarboxamide]	15	>1040	> 16000	2	>5850	> 12000
Cc1cccc(-c2nc(-c3ccc(S(=O)(=O)Nc4cccc(NC(=O)C5(C)CC5)c4)cc3)no2)n1 [Example 5, 1-Methyl-N-{3-[({4-[5-(6-methyl-2-pyridinyl)-1,2,4-oxadiazol-3-yl]phenyl}-sulphonyl)amino]phenyl}cyclopropanecarboxamide]	16	>1000	> 16000	14	>2214	> 31000
CC(C)(CF)C(=O)Nc1cccc(NS(=O)(=O)c2ccc(-c3noc(-c4cccc(N)n4)n3)cc2)c1 [Example 135, N-{3-[({4-[5-(6-Amino-2-pyridinyl)-1,2,4-oxadiazol-3-yl]phenyl}sulphonyl)amino]-phenyl}-3-fluoro-2,2-dimethylpropanamide]	5.2	9039	47000	11	273	3000
Cc1cc(-c2nc(-c3ccc(S(=O)(=O)Nc4cccc(NC(=O)C5(C)CC5)c4)cc3)no2)nn1C [Example 8, N-{3-[({4-[5-(1,5-Dimethyl-1H-pyrazol-3-yl)-1,2,4-oxadiazol-3-yl]phenyl}-sulphonyl)amino]phenyl}-1-methylcyclopropanecarboxamide]	20	>110	> 2200	24	>163	> 3900
CC1(C(=O)Nc2cccc(NS(=O)(=O)c3ccc(-c4noc(-c5csc(N)n5)n4)cc3)c2)CC1 [Example 4]	10	>6300	> 63000	15	733	11000
Cc1cc(-c2nc(-c3ccc(S(=O)(=O)Nc4cccc(NC(=O)C5(C)CC5)c4)cc3)no2)[nH]n1 [Example 6, 1-Methyl-N-{3-[({4-[5-(3-methyl-1H-pyrazol-5-yl)-1,2,4-oxadiazol-3-yl]phenyl}-sulphonyl)amino]phenyl}cyclopropanecarboxamide]	20	2053	39000	41	71	2900
CC(=O)Nc1cccc(-c2nc(-c3ccc(S(=O)(=O)Nc4cccc(NC(=O)C5(C)CC5)c4)cc3)no2)n1 [Example 132, N-(3-{[(4-{5-[6-(Acetylamino)-2-pyridinyl]-1,2,4-oxadiazol-3-yl}phenyl)sulphonyl]-amino}phenyl)-1-methylcyclopropanecarboxamide]	6	7833	47000	3	767	2300
CC1(C(=O)Nc2cccc(NS(=O)(=O)c3ccc(-c4noc(-c5csc(CN)n5)n4)cc3)c2)CC1 [Example 12, N-(3-{[(4-{5-[2-(Aminomethyl)-1,3-thiazol-4-yl]-1,2,4-oxadiazol-3-yl}phenyl)-sulphonyl]amino}phenyl)-1-methylcyclopropanecarboxamide]	58	241	14000	58	121	7000
CC1(C(=O)Nc2ccc(NS(=O)(=O)c3cccc(-c4nnc(-c5ccccn5)s4)c3)cc2)CC1 [Example 131, 1-Methyl-N-{4-[({3-[5-(2-pyridinyl)-1,3,4-thiadiazol-2-yl]phenyl}sulphonyl)amino]phenyl}cyclopropanecarboxamide]	20	>1555	> 28000			
CC1(C(=O)Nc2cccc(NS(=O)(=O)c3ccc(-c4noc(-c5cscn5)n4)cc3)c2)CC1 [Example 7, 1-Methyl-N-{3-[({4-[5-(1,3-thiazol-4-yl)-1,2,4-oxadiazol-3-yl]phenyl}sulphonyl)-amino]phenyl}cyclopropanecarboxamide]	25	1880	47000	25	480	12000
CN(C)c1cccc(-c2nc(-c3ccc(S(=O)(=O)Nc4cccc(NC(=O)C5(C)CC5)c4)cc3)no2)c1 [Example 2, N-(3-{[(4-{5-[3-(Dimethylamino)phenyl]-1,2,4-oxadiazol-3-yl}phenyl)sulphonyl]-amino}phenyl)-1-methylcyclopropanecarboxamide]	50	<320	< 16000	45	20	900
CC1(C(=O)Nc2cccc(NS(=O)(=O)c3ccc(-c4noc(-c5cccc(N)n5)n4)cc3)c2)CC1 [Example 134, N-{3-[({4-[5-(6-Amino-2-pyridinyl)-1,2,4-oxadiazol-3-yl]phenyl}sulphonyl)amino]-phenyl}-1-methylcyclopropanecarboxamide]	9	10444	94000	4.7	1617	8000
CC(C)(CF)C(=O)Nc1ccc(NS(=O)(=O)c2cccc(-c3noc(-c4ccccc4)n3)c2)cc1 [Example 13, 3-Fluoro-2,2-dimethyl-N-[4-({[3-(5-phenyl-1,2,4-oxadiazol-3-yl)phenyl]sulphonyl}-amino)phenyl]propanamide]	40	<200	< 8000	30	<533	< 16000
